Values joined by “and” are separate entries in the source; they are usually repeats but may differ in a detail not shown here. Equal values may be shown once. Read-outs that look alike come from different tables or passages of the source. Marks after values point to notes of the source that are not given here.
Experiments:
[1] = cited from earlier work
[2] = Study 101 Phase 1: serum ALT and AST; type: in vivo, human; conditions: subject receiving 6 mg/day, treated with 4,309 calories over 24 hours, two thirds carbohydrates
[3] = tested on: blood glucose; test: Study 101 Phase 1: blood glucose / hypoglycemia; conditions: for Effect on median blood glucose levels: FIG. 5; for Time at which dosing was stopped early due to the hypoglycemic effect: planned 72 h infusion
Protocol: Blood glucose was measured throughout the study, both to obtain pharmacodynamic information as well as for safety reasons. The dosing regimen was a bolus over 2 minutes followed by a continuous infusion for 72 hours.

[4] = In-use stability testing of glyburide solutions (PVC contact, in-line filter, flushing protocols); type: physicochemical
Description: One possible explanation is that glyburide adsorbs to PVC.

[5] = Preclinical experiments: filtering concentrated reconstituted glyburide, dilution into PVC-free bag; type: physicochemical
Protocol: In these experiments, the filtered material was diluted into a PVC-free bag (for example, the B Braun EXCEL L8000).
Patients in need of glyburide treatment include patients suffering from stroke, such as acute stroke (ischemic and hemorrhagic), traumatic brain injury (TBI), spinal cord injury (SCI), myocardial infarction (MI), shock (including hemorrhagic shock), organ ischemia, ventricular arrhythmias, ischemic injury; hypoxia/ischemia; and other injuries, conditions, and disorders.

[6] = Study 101 Phase 1: plasma glyburide pharmacokinetics, bolus plus 72 h continuous infusion of RP-1127; type: in vivo, human
Protocol: All plasma concentration data were analyzed by nonlinear regression, simultaneously incorporating drug behavior during and after the infusion.

[7] = Pharmacokinetics of glyburide after intravenous administration (published studies); type: in vivo, human
Description: All patents and publications discussed herein are hereby incorporated by reference in their entireties.

[8] = Jonsson et al. 2000, healthy males and females, data from Caucasian patients, N 10, i.v. dose 2.0 mg
[9] = McEwen et al. 1982, healthy males, N 20, i.v. dose 1.48 mg
[10] = Morrison et al. 1982, healthy males and females, N 8, i.v. dose 2.4 mg
[11] = Neugebauer et al. 1985, NIDDM males and females, N 20, i.v. dose 1.25 mg
[12] = Rogers et al. 1982, healthy males and females, N 8, i.v. dose 1 mg
[13] = Sorgel et al. 1997, healthy males, N 24, i.v. dose 1.5 mg
[14] = 0.4 mg/day, limit of detection 0.5 ng/mL
[15] = Study 101, 0.4 and 3.0 mg/day (N = 26), nonlinear regression
[16] = both sexes, human, in vivo, iv, Morrison et al. 1982, healthy males and females, N 8, i.v. dose 2.4 mg
[17] = both sexes, human, in vivo, iv, Neugebauer et al. 1985, NIDDM males and females, N 20, i.v. dose 1.25 mg
[18] = both sexes, human, in vivo, iv, Rydberg et al. 1995, healthy males and females, N 8, i.v. dose 1.0 mg, normalized to 70 kg
[19] = male, human, in vivo, iv, McEwen et al. 1982, healthy males, N 20, i.v. dose 1.48 mg

**Q.** What does the source list for `COc1ccc(Cl)cc1C(=O)NCCc1ccc(S(=O)(=O)NC(=O)NC2CCCCC2)cc1` [Glyburide, 5-chloro-N-(4-[N-(cyclohexylcarbamoyl)sulfamoyl]phenethyl)-2-methoxybenzamide]?
**A.** mean glyburide Cmax after administration of the bolus ([1]; Groop et al. 1987, bolus dose followed by continuous i.v. infusion): 240 ng/mL; Cmax [1, 8]: 196 ng/mL; clearance [1, 8]: 101.3 mL/min; t1/2 [1, 8]: 1.15 h; Beta [1, 9]: 0.3 h⁻¹; clearance [1, 9]: 49 mL/min; t1/2 [1, 9]: 2.46 h; Beta [1, 10]: 0.62 h⁻¹; Cmax [1, 10]: 648 ng/mL; Vd [1, 10]: 7.4 L; clearance [1, 10]: 73.7 mL/min; Beta [1, 11]: 0.38 h⁻¹; Cmax [1, 11]: 376 ng/mL; clearance [1, 11]: 73.5 mL/min; t1/2 [1, 11]: 1.82 h; Beta [1, 12]: 0.517 h⁻¹; t1/2 [1, 12]: 1.47 h; t1/2 ([1]; Rydberg et al. 1995, healthy males and females, N 8, i.v. dose 1.0 mg): 1.47 ± 0.42 h; Cmax [1, 13]: 331 ± 65 ng/mL; Tmax [1, 13]: 5.4 min; Vd [1, 13]: 11.22 ± 3 L; clearance [1, 13]: 74.7 ± 22 mL/min; t1/2 [1, 13]: 4.22 ± 1 h; t1/2 ([1]; Spraul et al. 1989, healthy males and females, N 52, i.v. dose 4.0 mg): 1.50 ± 0.36 h; Maximum glyburide plasma concentrations ([1]; range over studies: Rogers et al. 1982, Groop et al. 1987, Bank et al. 2000, Jonsson et al. 2000): 200 to 436 ng/mL; ALT and AST [2]: transient elevations in ALT and AST; Effect on median blood glucose levels ([3]; 0.4 mg/day vs placebo): very minor but visible effect on BG; Symptoms of hypoglycemia ([3]; 433 μg bolus plus 10 mg/day, single subject): classic symptoms of hypoglycemia but was always alert, oriented and conversant; blood glucose levels ([3]; 433 μg bolus plus 10 mg/day, single subject, H12-H22): 52 to 53 mg/dL; BG ([3]; 433 μg bolus plus 10 mg/day, single subject, hour 2): below 70 mg/dL; morning serum glucose ([3]; 433 μg bolus plus 10 mg/day, single subject, hour 22): below 50 mg/dL; Effect on median blood glucose levels ([3]; 3.0 mg/day vs placebo): more pronounced effect, without hypoglycemia; Hypoglycemia ([3]; 6 mg/day delivered as continuous infusion): severe hypoglycemia occurred; Time at which dosing was stopped early due to the hypoglycemic effect ([3]; 6 mg/day): around 32 hours; blood glucose levels ([3]; 6 mg/day, single subject, H0 to H8): above 70 mg/dL; blood glucose ([3]; 6 mg/day, single subject, after IV dextrose (10%) 100 cc/hour from approximately H29): 64 to 123 mg/dL; Signs of hypoglycemia ([3]; 6 mg/day, single subject, approximately H13.3, lasted 15 minutes): signs of hypoglycemia in the form of sweating (diaphoresis) and hunger; BG ([3]; 6 mg/day, single subject, at H12): 68 mg/dL; Hypoglycemia ([3]; 10 mg/day delivered as continuous infusion): severe hypoglycemia occurred; Time at which dosing was stopped early due to the hypoglycemic effect ([3]; 10 mg/day): around 24 hours; loss of glyburide in standard PVC bag ([4]; 10 μg/mL glyburide, PVC bag but not PVC tubing): acceptable amount of loss of glyburide; glyburide concentration after passage through a filter ([4]; 0.2 micron in-line filter): reduced; reduction in glyburide passing through the full chain of components ([4]; all components and flushing protocols): less than 10%; glyburide concentration on storage in PVC bags ([4]; glyburide concentrations below 10 μg/mL): reduced; glyburide concentration on contact with polyvinyl chloride (PVC) ([4]; solution passed through PVC tubing or stored in a PVC bag): reduced; Effect of filtering on glyburide concentration ([5]; 0.2 micron filter, at least about 10 μg/mL, preferably about 0.5-1 mg/mL or greater): does not significantly decrease the glyburide concentration; Loss of glyburide from glyburide solutions ([5]; filter 1 mg/mL concentrate, dilute into PVC-free bag, unfiltered polyethylene lined tubing): effective to reduce the loss of glyburide; mean steady state glyburide concentration (Css) ([6]; 17.3 μg bolus plus 0.4 mg/day, 72 h infusion): 3.8 ng/mL; mean Css ([6]; 130 μg bolus plus 3 mg/day, 72 h infusion): 25.3 ng/mL; Mean glyburide plasma level at treatment cessation ([6]; 0.4 mg/day): 4.4 ng/mL; Reduction of mean glyburide plasma levels within one hour of treatment cessation ([6]; 0.4 mg/day): 54%; Hour by which plasma levels were below the limits of detection in 50% of the patients [6, 14]: ≤ 76 h; Hour by which plasma levels were below the limits of detection in 100% of patients [6, 14]: ≤ 96 h; Hour by which plasma levels were below the limits of detection in 50% of the subjects ([6]; 3 mg/day): ≤ 84 h; Hour by which plasma levels were below the limits of detection in 100% of patients ([6]; 3 mg/day): ≤ 96 h; Mean glyburide plasma level at cessation of dosing ([6]; 3 mg/day): 27.3 ng/mL; Reduction of mean glyburide plasma levels within 1 hour of cessation of dosing ([6]; 3 mg/day): 57%; Dependence of pharmacokinetic parameters on covariates ([6]; Study 101): independent of dose, weight, height, body surface area, gender and age; clearance ([6]; Study 101, 0.4 and 3.0 mg/day (N = 26)): 54 mL/min/m^2; T1/2α [6, 15]: 0.44 h; T1/2β [6, 15]: 3.31 h; Time to steady state following bolus administration ([6]; Study 101, bolus plus continuous infusion): 8 to 20 h; Time of minimum plasma glyburide concentration after commencement of dosing (median) ([6]; Study 101, drop following the initial bolus loading dose): 1.25 to 1.5 h; Cmax ([6]; both sexes, human, plasma, intravenous, 17.3 μg bolus plus 0.4 mg/day, 72 h infusion): 7.2 ng/mL; concentration at 1 h after treatment cessation ([6]; both sexes, human, plasma, intravenous, 0.4 mg/day): 2 ng/mL; concentration at 1 h after cessation of dosing ([6]; both sexes, human, plasma, intravenous, 3 mg/day): 11.9 ng/mL; clearance ([6]; both sexes, human, plasma, intravenous, Study 101, 0.4 and 3.0 mg/day (N = 26), read-out: Clearance): 95 mL/min and 1.44 mL/min/kg; Cmax ([6]; human, plasma, intravenous, 130 μg bolus plus 3 mg/day, 72 h infusion, one patient, read-out: Cmax (of all individual subjects)): 50.7 ng/mL; concentration at 2 h ([6]; human, plasma, intravenous, 433 μg bolus plus 10 mg/day, single subject, at hour 2 (BG below 70 mg/dL)): 57.9 ng/mL; concentration at 12 h ([6]; human, plasma, intravenous, 6 mg/day, single subject, at H12 (BG 68 mg/dL)): 64 ng/mL; Beta ([7]; Rydberg et al. 1995, healthy males and females, N 8, i.v. dose 1.0 mg, normalized to 70 kg): 0.52*‡ 1/h; clearance [7, 16]: 73.7 mL/min; half-life [7, 16]: 1.18 h; Vd [7, 17]: 11.6 L; clearance [7, 17]: 73.5 mL/min; Vd [7, 18]: 10.9 L; clearance [7, 18]: 91 mL/min; clearance ([7]; both sexes, human, plasma, iv, Jonsson et al. 2000, healthy males and females, data from Caucasian patients, N 10, i.v. dose 2.0 mg): 28 mL/min; Vd [7, 19]: 9.7 L; clearance [7, 19]: 48.7 mL/min

Source: patent US10786445B2 (BIOGEN CHESAPEAKE LLC, priority 2010, dated 2020)
